Activity calls are given as the source filed them. The rule behind the calls is not given here.
Columns and labels:
[1] = Cmax in C57BL/6J mouse at 20 mg/kg, po administered as single dose; format: ADME, organism-based; design: dose 20 mg/kg, route oral; details: in vivo
[2] = Half life in C57BL/6J mouse at 20 mg/kg, po administered as single dose; format: ADME, organism-based; design: dose 20 mg/kg, route oral; details: in vivo
Mus musculus [3] = experiment: Antidiabetic activity against C57BL/6J mouse assessed as reduction serum glucose AUC levels at 20 mg/kg, po measured up to 120 mins by IPGTT method; format: functional, organism-based; design: dose 20 mg/kg
[4] = AUC (0 to alpha) in C57BL/6J mouse at 20 mg/kg, po administered as single dose; format: ADME, organism-based; design: dose 20 mg/kg, route oral; details: plasma
[5] = Oral bioavailability in C57BL/6J mouse at 20 mg/kg administered as single dose; format: ADME, organism-based; details: in vivo
Mus musculus [6] = experiment: Antidiabetic activity against C57BL/6J mouse assessed as reduction serum glucose AUC levels at 20 mg/kg, po measured up to 240 mins by IPGTT method; format: functional, organism-based; design: dose 20 mg/kg
[7] = Elimination rate constant in C57BL/6J mouse at 20 mg/kg administered as single dose; format: ADME, organism-based; design: dose 20 mg/kg; details: in vivo
Mus musculus [8] = experiment: Antidiabetic activity against C57BL/6J mouse assessed as reduction serum glucose AUC levels at 20 mg/kg, po measured up to 60 mins by IPGTT method; format: functional, organism-based; design: dose 20 mg/kg
[9] = Tmax in C57BL/6J mouse at 20 mg/kg, po administered as single dose; format: ADME, organism-based; design: dose 20 mg/kg, route oral; details: in vivo
Mus musculus [10] = experiment: Antidiabetic activity against C57BL/6J mouse assessed as reduction serum glucose AUC levels at 20 mg/kg, po measured up to 30 mins by IPGTT method; format: functional, organism-based; design: dose 20 mg/kg

| Cmax [1] [ng/mL] | half-life [2] [min] | AUC [4] [ng·h/mL] | bioavailability [5] [%] | k el [7] [s⁻¹] | Tmax [9] [min] | Compound | Activity (Mus musculus [3]) | Activity (Mus musculus [6]) | Activity (Mus musculus [8]) | Activity (Mus musculus [10]) |
| --- | --- | --- | --- | --- | --- | --- | --- | --- | --- | --- |
| 7100 | 479 | 14300 | 72.5 | 3.06e-05 | 17.4 | N#Cc1ccc(C(=O)NCCCC(=O)N2CCC[C@H]2C#N)cc1 | Active | Active | Active | Active |
| 5900 | 59.4 | 6890 | 63.1 | 0.000228 | 16.8 | N#C[C@@H]1CCCN1C(=O)CCCNC(=O)c1ccc(C(F)(F)F)cc1 | inactive | inactive | Active | Active |
| 6200 | 52.8 | 6490 | 65 | – | 19.2 | N#Cc1ccc(NCCNCC(=O)N2CCC[C@H]2C#N)nc1 | inactive | inactive | Active | Active |
